The values that follow come from US20150050301A1, “Contiguous Overlapping Peptides for Treatment of House Dust Mites Allergy” (ANERGIS S.A., priority 2013, published 2015).

A short description of this data set: Solubility Characteristics of COPs. To be noted: for Conc.: Solvent H2O. Format: physicochemical. The method, then: All COPs were synthesized by solid phase fmoc chemistry at research scale to allow determination of IgE binding. […] Peptides were resuspended either in water at 2 mg/ml or at 10 to 20 mg per ml in DMSO (see Table 1) and frozen in aliquots.

Residues, ends and D or L forms follow the SMILES beside them.

For `CC[C@H](C)[C@H](NC(=O)CNC(=O)[C@H](Cc1ccccc1)NC(=O)[C@H](CCCNC(=N)N)NC(=O)[C@H](CCC(N)=O)NC(=O)[C@H](C)NC(=O)[C@H](CC(N)=O)NC(=O)[C@@H]1CCCN1C(=O)[C@H](CCCNC(=N)N)NC(=O)[C@H](CCCNC(=N)N)NC(=O)[C@H](CS)NC(=O)[C@H](CO)NC(=O)[C@H](CCC(N)=O)NC(=O)[C@H](CCC(=O)O)NC(=O)[C@H](CCCNC(=N)N)NC(=O)[C@H](C)N)C(=O)N[C@@H](CO)C(=O)N[C@@H](CC(N)=O)C(=O)N[C@@H](Cc1ccc(O)cc1)C(=O)N[C@@H](CS)C(=O)N[C@@H](CCC(N)=O)C(=O)N[C@H](C(=O)N[C@@H](Cc1ccc(O)cc1)C(=O)N1CCC[C@H]1C(=O)N1CCC[C@H]1C(=O)N[C@@H](CC(N)=O)C(=O)N[C@H](C(=O)N[C@@H](CC(N)=O)C(=O)N[C@@H](CCCCN)C(=O)N[C@H](C(=O)N[C@@H](CCCNC(=N)N)C(=O)N[C@@H](CCC(=O)O)C(=O)O)[C@@H](C)CC)C(C)C)[C@@H](C)CC` [AllerDM1.5a] (H-AREQSCRRPNAQRFGISNYCQIYPPNVNKIRE-OH; N-terminus and C-terminus assumed), the solubility in words entry is reported as “solubility in water” and the Conc. is 4700 µg/mL.
For `CC[C@H](C)[C@H](NC(=O)CNC(=O)[C@H](Cc1ccccc1)NC(=O)[C@H](CCCNC(=N)N)NC(=O)[C@H](CCC(N)=O)NC(=O)[C@H](C)NC(=O)[C@H](CC(N)=O)NC(=O)[C@@H]1CCCN1C(=O)[C@H](CCCNC(=N)N)NC(=O)[C@H](CCCNC(=N)N)NC(=O)[C@H](CS)NC(=O)[C@H](CO)NC(=O)[C@H](CCC(N)=O)NC(=O)[C@H](CCC(=O)O)NC(=O)[C@H](CCCNC(=N)N)NC(=O)[C@H](C)NC(=O)[C@@H](NC(=O)[C@H](Cc1ccc(O)cc1)NC(=O)[C@@H](N)CCCNC(=N)N)C(C)C)C(=O)N[C@@H](CO)C(=O)N[C@@H](CC(N)=O)C(=O)N[C@@H](Cc1ccc(O)cc1)C(=O)N[C@@H](CS)C(=O)N[C@@H](CCC(N)=O)C(=O)N[C@H](C(=O)N[C@@H](Cc1ccc(O)cc1)C(=O)N1CCC[C@H]1C(=O)N1CCC[C@H]1C(=O)N[C@@H](CC(N)=O)C(=O)N[C@H](C(=O)N[C@@H](CC(N)=O)C(=O)N[C@@H](CCCCN)C(=O)N[C@H](C(=O)N[C@@H](CCCNC(=N)N)C(=O)N[C@@H](CCC(=O)O)C(=O)O)[C@@H](C)CC)C(C)C)[C@@H](C)CC` [AllerDM1.54] (H-RYVAREQSCRRPNAQRFGISNYCQIYPPNVNKIRE-OH; N-terminus and C-terminus assumed), in that order: “solubility in water” and 2000 µg/mL.
`CC[C@H](C)[C@H](NC(=O)[C@H](CCC(=O)O)NC(=O)[C@H](Cc1c[nH]cn1)NC(=O)[C@H](CC(N)=O)NC(=O)[C@H](C)NC(=O)[C@H](CS)NC(=O)[C@H](CC(=O)O)NC(=O)[C@H](CCCCN)NC(=O)[C@@H](NC(=O)[C@H](CC(=O)O)NC(=O)[C@@H](NC(=O)[C@H](CCC(N)=O)NC(=O)[C@@H](N)CC(=O)O)C(C)C)C(C)C)C(=O)N[C@@H](CCCCN)C(=O)N[C@@H](CCCCN)C(=O)N[C@H](C(=O)N[C@@H](CC(C)C)C(=O)N[C@H](C(=O)N1CCC[C@H]1C(=O)NCC(=O)N[C@@H](CS)C(=O)N[C@@H](Cc1c[nH]cn1)C(=O)NCC(=O)N[C@@H](CO)C(=O)N[C@@H](CCC(=O)O)C(=O)O)C(C)C)C(C)C` [AllerDM2.3] (H-DQVDVKDCANHEIKKVLVPGCHGSE-OH; N-terminus and C-terminus assumed) returned a Conc. of 3000 µg/mL.
